Measurements published in PubChem BioAssay AID2060904 (Molecular Pharmacology Branch, DTP, NCI, 2025).

Test system: 349418-098-R-PDC complex spheroid viability
Assay: Anticancer human tumor 349418-098-R-PDC patient-derived lung adenocarcinoma cell line growth inhibition [RAS]
Settings: for IC50: curve of first compound; for viability, T/C: stronger effect = lower value
In short: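 Multi-cell-type spheroids: tumor cells plus HUVEC endothelial cells and mesenchymal stem cells. RAS-pathway inhibitors were combined with targeted agents, each dosed in half-log steps down from clinical Cmax, or from 10 microM when Cmax was unknown.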

[1] = second compound 0.000949 µM, first compound 0.0316 µM
[2] = second compound 0.000949 µM, first compound 0.1 µM
[3] = second compound 0.000949 µM, first compound 0.316 µM
[4] = second compound 0.000949 µM, first compound 1 µM
[5] = second compound 0.000949 µM, first compound 3.16 µM
[6] = second compound 0.000949 µM, first compound 10 µM
[7] = second compound 0.003 µM, first compound 0.0316 µM
[8] = second compound 0.003 µM, first compound 0.1 µM
[9] = second compound 0.003 µM, first compound 0.316 µM
[10] = second compound 0.003 µM, first compound 1 µM
[11] = second compound 0.003 µM, first compound 3.16 µM
[12] = second compound 0.003 µM, first compound 10 µM
[13] = second compound 0.00949 µM, first compound 0.0316 µM
[14] = second compound 0.00949 µM, first compound 0.1 µM
[15] = second compound 0.00949 µM, first compound 0.316 µM
[16] = second compound 0.00949 µM, first compound 1 µM
[17] = second compound 0.00949 µM, first compound 3.16 µM
[18] = second compound 0.00949 µM, first compound 10 µM
[19] = second compound 0.03 µM, first compound 0.0316 µM
[20] = second compound 0.03 µM, first compound 0.1 µM
[21] = second compound 0.03 µM, first compound 0.316 µM
[22] = second compound 0.03 µM, first compound 1 µM
[23] = second compound 0.03 µM, first compound 3.16 µM
[24] = second compound 0.03 µM, first compound 10 µM
[25] = second compound 0.0949 µM, first compound 0.0316 µM
[26] = second compound 0.0949 µM, first compound 0.1 µM
[27] = second compound 0.0949 µM, first compound 0.316 µM
[28] = second compound 0.0949 µM, first compound 1 µM
[29] = second compound 0.0949 µM, first compound 3.16 µM
[30] = second compound 0.0949 µM, first compound 10 µM
[31] = second compound 0.3 µM, first compound 0.0316 µM
[32] = second compound 0.3 µM, first compound 0.1 µM
[33] = second compound 0.3 µM, first compound 0.316 µM
[34] = second compound 0.3 µM, first compound 1 µM
[35] = second compound 0.3 µM, first compound 3.16 µM
[36] = second compound 0.3 µM, first compound 10 µM
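Note: spheroids exposed to compound for seven days before viability readout.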

`CC(Nc1ccc2c(c1)OCCn1cc(N3C(=O)OCC3C(F)F)nc1-2)C(N)=O` (stereo unspecified) + CCn1c(-c2cccnc2C(C)OC)c2c3cc(ccc31)N1CCOC(CC(NC(=O)C(C(C)C)N(C)C(=O)C3(F)CCN(C(=O)C#CC(C)(C)N(C)C)CC3)C(=O)N3CCCC(N3)C(=O)OCC(C)(C)C2)C1 was tested, and the IC50 (second compound 0.000949 µM) was 36.4 nM, the IC50 (second compound 0.003 µM) was 99.4 nM and the IC50 (second compound 0.00949 µM) was 72.4 nM. It also gave an IC50 (second compound 0.03 µM) of 278 nM, an IC50 (second compound 0.0949 µM) of under 31.6 nM and an IC50 (second compound 0.3 µM) of 39.9 nM. The viability, T/C [1] was 72.9%, the viability, T/C [2] was 36.7% and the viability, T/C [3] was 17.7%. It also gave a viability, T/C [4] of 17.2%, a viability, T/C [5] of 101% and a viability, T/C [6] of 16.2%. It also gave a viability, T/C [7] of 80.3%, a viability, T/C [8] of 56.2% and a viability, T/C [9] of 30.2%. The viability, T/C [10] was 19.6%, the viability, T/C [11] was 99.2% and the viability, T/C [12] was 12.9%. The viability, T/C [13] was 73.4%, the viability, T/C [14] was 43.6% and the viability, T/C [15] was 25.2%. For the same compound, the viability, T/C [16] was 14.9%, the viability, T/C [17] was 94.2% and the viability, T/C [18] was 11.8%. The viability, T/C [19] was 67.6%, the viability, T/C [20] was 43% and the viability, T/C [21] was 32.2%. It also gave a viability, T/C [22] of 24.3%, a viability, T/C [23] of 112% and a viability, T/C [24] of 14.7%. The viability, T/C [25] was 55.9%, the viability, T/C [26] was 44.5% and the viability, T/C [27] was 25.9%. It also gave a viability, T/C [28] of 17.9%, a viability, T/C [29] of 98.1% and a viability, T/C [30] of 10.4%. For the same compound, the viability, T/C [31] was 53.7%, the viability, T/C [32] was 37.8% and the viability, T/C [33] was 21.5%. For the same compound, the viability, T/C [34] was 19%, the viability, T/C [35] was 65% and the viability, T/C [36] was 14.5%.
In the case of `CCc1c2c(nc3ccc(O)cc13)-c1cc3c(c(=O)n1C2)COC(=O)[C@]3(O)CC` + C#Cc1c(F)ccc2cc(O)cc(-c3ncc4c(N5CC6CCC(C5)N6)nc(OCC56CCCN5CC(F)C6)nc4c3F)c12, the IC50 (second compound 0.0316 µM) is reported as 1.41 nM, the IC50 (second compound 0.1 µM) is reported as 1.76 nM and the IC50 (second compound 0.316 µM) is reported as 1.76 nM. It also gave an IC50 (second compound 1 µM) of 1.96 nM, an IC50 (second compound 3.16 µM) of 1.75 nM and an IC50 (second compound 10 µM) of 1.18 nM. The viability, T/C (second compound 0.0316 µM, first compound 0.000949 µM) was 58.9%, the viability, T/C (second compound 0.0316 µM, first compound 0.003 µM) was 33.1% and the viability, T/C (second compound 0.0316 µM, first compound 0.00949 µM) was 10.8%. The viability, T/C (second compound 0.0316 µM, first compound 0.03 µM) was 4.93%, the viability, T/C (second compound 0.0316 µM, first compound 0.0949 µM) was 3.89% and the viability, T/C (second compound 0.0316 µM, first compound 0.3 µM) was 2.53%. It also gave a viability, T/C (second compound 0.1 µM, first compound 0.000949 µM) of 74.7%, a viability, T/C (second compound 0.1 µM, first compound 0.003 µM) of 28.7% and a viability, T/C (second compound 0.1 µM, first compound 0.00949 µM) of 10.6%. It also gave a viability, T/C (second compound 0.1 µM, first compound 0.03 µM) of 5.19%, a viability, T/C (second compound 0.1 µM, first compound 0.0949 µM) of 4.46% and a viability, T/C (second compound 0.1 µM, first compound 0.3 µM) of 2.82%. It also gave a viability, T/C (second compound 0.316 µM, first compound 0.000949 µM) of 70.9%, a viability, T/C (second compound 0.316 µM, first compound 0.003 µM) of 32.1% and a viability, T/C (second compound 0.316 µM, first compound 0.00949 µM) of 8.77%. It also gave a viability, T/C (second compound 0.316 µM, first compound 0.03 µM) of 4.98%, a viability, T/C (second compound 0.316 µM, first compound 0.0949 µM) of 3.85% and a viability, T/C (second compound 0.316 µM, first compound 0.3 µM) of 2.45%. The viability, T/C (second compound 1 µM, first compound 0.000949 µM) was 81%, the viability, T/C (second compound 1 µM, first compound 0.003 µM) was 32% and the viability, T/C (second compound 1 µM, first compound 0.00949 µM) was 9.89%. For the same compound, the viability, T/C (second compound 1 µM, first compound 0.03 µM) was 6.27%, the viability, T/C (second compound 1 µM, first compound 0.0949 µM) was 4.67% and the viability, T/C (second compound 1 µM, first compound 0.3 µM) was 2.58%. It also gave a viability, T/C (second compound 3.16 µM, first compound 0.000949 µM) of 65.8%, a viability, T/C (second compound 3.16 µM, first compound 0.003 µM) of 36.2% and a viability, T/C (second compound 3.16 µM, first compound 0.00949 µM) of 10.1%. It also gave a viability, T/C (second compound 3.16 µM, first compound 0.03 µM) of 5.33%, a viability, T/C (second compound 3.16 µM, first compound 0.0949 µM) of 3.62% and a viability, T/C (second compound 3.16 µM, first compound 0.3 µM) of 2.21%. It also gave a viability, T/C (second compound 10 µM, first compound 0.000949 µM) of 57.9%, a viability, T/C (second compound 10 µM, first compound 0.003 µM) of 17.1% and a viability, T/C (second compound 10 µM, first compound 0.00949 µM) of 4.95%. The viability, T/C (second compound 10 µM, first compound 0.03 µM) was 2.94%, the viability, T/C (second compound 10 µM, first compound 0.0949 µM) was 1.84% and the viability, T/C (second compound 10 µM, first compound 0.3 µM) was 0.77%.
In the case of `C[C@@H](NC(=O)c1ncnc(N)c1Cl)c1ncc(C(=O)Nc2cc(C(F)(F)F)c(Cl)cn2)s1` + CCn1c(-c2cc(N3CCN(C)CC3)cnc2C(C)OC)c2c3cc(ccc31)-c1csc(n1)CC(NC(=O)C1CC1C)C(=O)N1CCCC(N1)C(=O)OCC(C)(C)C2, the IC50 (second compound 0.000949 µM) is reported as 1340 nM, the IC50 (second compound 0.003 µM) is reported as 1120 nM and the IC50 (second compound 0.00949 µM) is reported as 976 nM. It also gave an IC50 (second compound 0.03 µM) of 806 nM, an IC50 (second compound 0.0949 µM) of 687 nM and an IC50 (second compound 0.3 µM) of 915 nM. For the same compound, the viability, T/C [1] was 105%, the viability, T/C [2] was 85.8% and the viability, T/C [3] was 77.9%. It also gave a viability, T/C [4] of 58.2%, a viability, T/C [5] of 30.6% and a viability, T/C [6] of 17.3%. It also gave a viability, T/C [7] of 102%, a viability, T/C [8] of 93.6% and a viability, T/C [9] of 72.5%. It also gave a viability, T/C [10] of 54.5%, a viability, T/C [11] of 29.7% and a viability, T/C [12] of 18.7%. It also gave a viability, T/C [13] of 106%, a viability, T/C [14] of 90.4% and a viability, T/C [15] of 81.1%. For the same compound, the viability, T/C [16] was 49%, the viability, T/C [17] was 23.2% and the viability, T/C [18] was 12.5%. The viability, T/C [19] was 103%, the viability, T/C [20] was 88% and the viability, T/C [21] was 87.4%. For the same compound, the viability, T/C [22] was 40%, the viability, T/C [23] was 23.1% and the viability, T/C [24] was 11.4%. For the same compound, the viability, T/C [25] was 102%, the viability, T/C [26] was 89.6% and the viability, T/C [27] was 79.3%. For the same compound, the viability, T/C [28] was 35%, the viability, T/C [29] was 20.2% and the viability, T/C [30] was 11.8%. For the same compound, the viability, T/C [31] was 104%, the viability, T/C [32] was 93.2% and the viability, T/C [33] was 69.9%. For the same compound, the viability, T/C [34] was 51.8%, the viability, T/C [35] was 23.2% and the viability, T/C [36] was 12.5%.
